Key:
bile acid metabolism = assay: Analysis of bile acid metabolism markers (glycine, taurine) by NMR in serum and urine of high-fat-diet mice; format: in vivo, C57BL6/J male mice; settings: gallic acid 100 mg/kg orally daily (the third group), 16-week-old
Protocol: (§1) The gallic acid is purchased from Sigma, U.S.A.
(§2) In addition, to ensure experimental stability, the mice in the first and second group were given water at a volume the same as that in the third and fourth group. At the age of 16-week-old, the urine of the mice was collected, and the concentration of the blood glucose and serum insulin were measured. Then, the mice were sacrificed, and the serum was collected for the analysis of metabolic markers. The liver was weighted and photographed.
(§3) The collected blood and urine were analyzed by a nuclear magnetic resonance spectrum. The steps are shown as follows. • (1) Urine: The urine (500 μl), PBS (50 μl) (81:19 vol/vol, comprising 0.2 M NaHPO4 and 0.2 M NaH2PO4, pH=7.4), 10% deuteroxide, and 0.03% trimethylsilyl propionate (TSP) were mixed in a micro-centrifuge tube and centrifuged with 13000 rpm for 20 minutes at 4° C. The supernatant (500 μl) was collected and analyzed by 600 MHz nuclear magnetic resonance (NMR, Bruker AVANCE 600AV) at 25° C. The 1D NOESY FID signal was transferred to a one-dimensional NMR spectrum of graphing through Fourier transform. • (2) Blood: The serum (250 μl) and deuteroxide (350 μl) were mixed in a micro-centrifuge tube and centrifuged with 13000 rpm for 20 minutes at 4° C. The supernatant (500 μl) was collected and analyzed. The metabolites in serum were analyzed by using NMR sequence CPMG.
It has been known that the concentration of taurine and glycine can be used as markers of bile acid metabolism (see Miyazaki T, Matsuzaki Y (2012) Taurine and liver diseases: a focus on the heterogeneous protective properties of taurine. Amino Acids, which is entirely incorporated hereinto by reference). Therefore, the integrated area of the spectrum of glycine (chemical shift 3.56 ppm singlet) and the taurine (chemical shift 3.40 ppm triplet) in the blood and urine were analyzed.

[1] = system: nonalcoholic fatty liver and insulin resistance in mice induced by the high-fat-diet; assay: Liver weight, blood glucose, serum insulin and liver pathology in high-fat-diet mice; format: in vivo, C57BL6/J male mice; settings: gallic acid 50 or 100 mg/kg orally daily, compared to the high-fat-diet group
Protocol: as §1, §2

amino acid metabolism = assay: Analysis of amino acid metabolism markers by NMR in serum of high-fat-diet mice; format: in vivo, C57BL6/J male mice; settings: gallic acid 100 mg/kg orally daily (the third group)
Protocol: as §1, §2, §3
It has been known that the concentration of isoleucine, leucine, valine, glutamate, glutamine, tyrosine, phenylalanine, alanine, lysine, arginine and ornithine can be used as the markers of amino acid metabolism (see Rare Disease Diet Control Manual—amino acid metabolism, Foundation for Rare Disorders, pages 18, 22, 26-31, which is entirely incorporated hereinto by reference). Therefore, the integrated area of the spectrum of isoleucine (chemical shift 1.01 ppm dublet), the leucine (chemical shift 0.97 ppm triplet) and the valine (chemical shift 1.04 ppm doublet) in the serum were analyzed.

[2] = system: gut microbiota metabolism; assay: Analysis of gut microbiota metabolism markers by NMR in serum and urine of high-fat-diet mice; format: in vivo, C57BL6/J male mice; settings: gallic acid 100 mg/kg orally daily (the third group)
Protocol: as §1, §2, §3
It has been known that the concentration of isobutyric acid, butanoic acid, hippuric acid, dimethylamine and trimethylamine can be used as the markers of the gut microbiota metabolism and reflect the change of gut microbiota. Therefore, the integrated area of the spectrum of isobutyric acid, butanoic acid, hippuric acid, dimethylamine and trimethylamine in the blood and urine were analyzed.

mouse = settings: cited from earlier work

O=C(O)c1cc(O)c(O)c(O)c1 [gallic acid]
glycine, integrated area of NMR spectrum (bile acid metabolism; serum): 142.91 ± 10.60 the normalized and transferred NMR signal × 10^3 | glycine, integrated area of NMR spectrum (bile acid metabolism; urine): 206.51 ± 8.45 the normalized and transferred NMR signal × 10^3 | taurine, integrated area of NMR spectrum (bile acid metabolism; urine): 489.81 ± 125.78 the normalized and transferred NMR signal × 10^3 | effect on nonalcoholic fatty liver induced by the high-fat-diet ([1]; FIGS. 1, 4A, 4B): ameliorating | effect on insulin resistance induced by the high-fat-diet ([1]; FIGS. 2, 3): ameliorating | alanine, integrated area of NMR spectrum (amino acid metabolism): 96.11 ± 6.07 the normalized and transferred NMR signal × 10^3 | arginine, integrated area of NMR spectrum (amino acid metabolism): 30.08 ± 0.78 the normalized and transferred NMR signal × 10^3 | glutamate, integrated area of NMR spectrum (amino acid metabolism): 39.50 ± 1.39 the normalized and transferred NMR signal × 10^3 | glutamine, integrated area of NMR spectrum (amino acid metabolism): 40.61 ± 3.88 the normalized and transferred NMR signal × 10^3 | isoleucine, integrated area of NMR spectrum (amino acid metabolism): 32.29 ± 3.25 the normalized and transferred NMR signal × 10^3 | leucine, integrated area of NMR spectrum (amino acid metabolism): 109.28 ± 2.36 the normalized and transferred NMR signal × 10^3 | lysine, integrated area of NMR spectrum (amino acid metabolism): 74.93 ± 2.24 the normalized and transferred NMR signal × 10^3 | ornithine, integrated area of NMR spectrum (amino acid metabolism): 36.39 ± 1.45 the normalized and transferred NMR signal × 10^3 | phenylalanine, integrated area of NMR spectrum (amino acid metabolism): 6.44 ± 0.39 the normalized and transferred NMR signal × 10^3 | tyrosine, integrated area of NMR spectrum (amino acid metabolism): 6.78 ± 0.85 the normalized and transferred NMR signal × 10^3 | valine, integrated area of NMR spectrum (amino acid metabolism): 68.26 ± 3.46 the normalized and transferred NMR signal × 10^3 | isobutyric acid, integrated area of NMR spectrum ([2]; serum): 22.49 ± 1.55 | butanoic acid, integrated area of NMR spectrum ([2]; urine): 187.08 ± 10.46 | dimethylamine, integrated area of NMR spectrum ([2]; urine): 197.9 ± 9.20 | hippuric acid, integrated area of NMR spectrum ([2]; urine): 10.33 ± 0.90 | trimethylamine, integrated area of NMR spectrum ([2]; urine): 269.21 ± 76.77 | No Observed Adverse Effect Level (NOAEL) (mouse): greater than 5000 mg/kg
